Assays:
MPTP induced toxicity = conditions: mice, cited from earlier work; for effect on dopamine levels: MPTP
MAO = assay: Total MAO activity, spectrophotometric assay in liver homogenate; assay type: biochemical, cow or rat; conditions: for percent inhibition of MAO activity: at maximal or saturating inhibition concentrations, tyramine substrate, 37 degrees Centigrade; for maximal inhibition concentration: dissolved in distilled water, concentration curve at reaction time of one hour; for MAO inhibition over the reaction time course: saturating concentrations, over 60 minutes of MAO activity
Description: The MAO activities of the compounds and substances were determined using standard reaction conditions as described in Halt, A., et al., Analytical Biochemistry, 244:384-392 (1997).
(§1) Liver samples from cow or rat were obtained immediately after sacrifice. Liver was homogenized in a Polytron mechanical homogenizer in a ratio of 1 gram of liver to 1 ml of potassium phosphate buffer (0.2 M at pH of 7.6). Large membranes were removed by low speed centrifugation at 1000×g for 15 minutes. The supernatant was removed from the pellet and used immediately for MAO activity assays or stored at 0 degrees Centigrade. Protein levels were determined in the liver homogenate by the Bradford protein reaction.
The standard reaction conditions were developed as a modification of the spectrophotometric assay using standard conditions (Halt, A., et al., Analytical Biochemistry, 244:384-392 (1997)). Total MAO activity was determined by incubating the liver preparations for 30 minutes at 37 degrees Centigrade with a 1/1 dilution of a test fraction (compound or substance to be tested dissolved in distilled water) or control condition (water alone). This incubation allowed the test compound or substance to interact with the enzyme under physiological conditions. The final tissue concentration in the reaction mixture was 3.5 mg per 100 ml.
Following the incubation with test compounds/substances or control, the MAO reactions were initiated and the reactions were incubated at 37 degrees Centigrade. The reaction was initiated by mixing 150 μl of preincubated tissue with 150 μl of chromogenic solution (containing 10 mM vanillic acid, 5 mM 4-amino antipyrene, 20 units/ml of peroxidase in 0.2 M potassium phosphate buffer final concentration pH 7.6), 600 μl of amine substrate (tyramine 500 micromolar), and 100 μl of distilled water (1 ml reaction volume). The standard reaction time was for 1 hour, but reaction times varied from 1 minute to 3 hours to evaluate the time course of the reaction in the presence or absence of test substance or control. The reactions were terminated by the addition of 30 μl of a stop solution of phenelzine (10 mM). The stopped reactions were stored on ice and placed at room temperature for reading in a spectrophotometer at a wavelength of 498 nm. The resulting values were analyzed to determine the amount of reaction product produced by MAO activity. This assay was reliable and simple to perform. A standard curve using hydrogen peroxide for enzyme activity was prepared for each experiment to determine the activity of the enzyme.
(§2) Each of the compounds and substances of the present invention were evaluated by initially determining a concentration curve at a reaction time of one hour. After determining the concentration curves of each compound or substance on MAO activity, a reaction time course in the presence or absence of test compound or substance was determined and time course curves were generated. Following these experiments, the effect of each test compound or substance was evaluated on MAO A and MAO B activity by the same reaction studies as described above for the total enzyme activity.

MAO A = assay: Selective MAO A assay in liver homogenate, other isoform blocked by selective inhibitor; assay type: biochemical, cow or rat; conditions: saturating concentration; significantly different from control
Description: as §1
(§3) The standard reaction conditions were developed as a modification of the spectrophotometric assay using standard conditions (Halt, A., et al., Analytical Biochemistry, 244:384-392 (1997)). Total MAO activity was determined by incubating the liver preparations for 30 minutes at 37 degrees Centigrade with a 1/1 dilution of a test fraction (compound or substance to be tested dissolved in distilled water) or control condition (water alone). […]
(§4) Following the incubation with test compounds/substances or control, the MAO reactions were initiated and the reactions were incubated at 37 degrees Centigrade. […] The stopped reactions were stored on ice and placed at room temperature for reading in a spectrophotometer at a wavelength of 498 nm. The resulting values were analyzed to determine the amount of reaction product produced by MAO activity. […]
(§5) Selective assays of MAO A and MAO B isoforms were determined by using selective inhibitors of each of these enzymes. […]
as §2

MAO B = assay: Selective MAO B assay in liver homogenate, other isoform blocked by selective inhibitor; assay type: biochemical, cow or rat; conditions: saturating concentration; significantly different from control
Description: as §1, §3, §4, §5, §2

SMILES	effect on dopamine levels (MPTP induced toxicity)	effect on decrease in dopamine metabolite levels induced by MPTP (MPTP induced toxicity)	percent inhibition of MAO activity (MAO)	maximal inhibition concentration (MAO) [mg/mL]	MAO inhibition over the reaction time course (MAO)	inhibition of MAO A activity (MAO A)	inhibition of MAO B activity (MAO B)
c1ccc(-c2ccncc2)cc1 [4-phenylpyridine]	no significant effect on dopamine levels	prevented the decrease in dopamine metabolite levels	–	–	–	–	–
c1cncc([C@@H]2CCCCN2)c1 [anabasine, Anabasine]	–	–	10-13%	0.2	effective at inhibiting the enzyme at all time points in the reaction	inhibit both MAO A and MAO B activity	inhibit both MAO A and MAO B activity
C1=CCC(c2cccnc2)NC1 (stereo not shown) [anatabine, Anatabine]	–	–	approximately 60%	0.1	effective at inhibiting the enzyme at all time points in the reaction	equally effective in inhibiting both MAO A and MAO B activities	equally effective in inhibiting both MAO A and MAO B activities
CN1CCCC1c1cccnc1 (stereo not shown) [nicotine]	no significant effect on dopamine levels	prevented the decrease in dopamine metabolite levels	–	–	–	–	–
c1cncc([C@@H]2CCCN2)c1 [nornicotine, Nornicotine]	–	–	80 to 95%	0.08	effective at inhibiting the enzyme at all time points in the reaction	equally effective in inhibiting both MAO A and MAO B activities	equally effective in inhibiting both MAO A and MAO B activities

Source: patent US6929811B2, “Monoamine oxidase (MAO) inhibitors and uses thereof” (priority 1998, dated 2005)
